Earlier results, collected in patent US20070042049A1, “Nanoparticulate benidipine compositions” (Elan Pharma International, Limited, priority 2005, published 2007).
Where a name gives a salt, the structure may show the parent alone. Read-outs that look alike come from different tables or passages of the source.

solubility (in acetic anhydride): slightly soluble | solubility (in dimethylformamide): freely soluble | solubility (in ethanol): soluble | solubility (in formic acid): very soluble | solubility (in methanol): soluble | solubility (in water): relatively insoluble
SMILES: COC(=O)C1=C(C)NC(C)=C(C(=O)O[C@@H]2CCCN(Cc3ccccc3)C2)C1c1cccc([N+](=O)[O-])c1 (stereo in doubt) [Benidipine hydrochloride]
